Measurements as given in patent US12678514B2, “Algae-based microrobot for drug delivery” (priority 2023, dated 2026).
≈ marks a conversion by molar mass, not a printed value.

Key:
P. aeruginosa = experiment: In vitro antibacterial activity (MIC, minimal bactericidal concentration); format: cell-based, Pseudomonas aeruginosa; settings: CFU enumeration
[1] = tested on: B16-F10-Luc2 melanoma lung metastasis; experiment: In vivo efficacy in a lung metastasis model; design: species or system C57BL/6 mice
Excerpt: This model was established by intravenously injecting 1×10^5 B16-F10-Luc2 cells through the tail vein of C57BL/6 mice. The treatment regimen consisted of four 75-μg DOX doses given every other day, with the first dose administered one day after the tumor challenge. […] We also quantified the overall lung metastasis burden based on the bioluminescence intensity in the lungs (FIG. 16d). […] Additionally, we monitored for changes in body weight during the entire treatment period (FIG. 16g).
In vivo efficacy in a lung metastasis model. […] The mice received treatment with free DOX, NP(DOX) and algae-NP(DOX)-robot through intratracheal instillation on days 1, 3, 5 and 7 after tumor cell inoculation. Mice without treatment were used as controls. To monitor tumor growth, on days 12, 16, 20, 24 and 28 after tumor cell inoculation, the mice were intraperitoneally administered 200 μl of 5 mg ml^−1 D-luciferin (Syd Labs) in DPBS (Gibco). Bioluminescence signals were detected using a PerkinElmer Xenogen IVIS 200 system. The body weight and survival of each mouse were also monitored throughout the study.

[2] = In vivo safety evaluation of algae-NP(DOX)-robot; design: species or system C57BL/6 mice
Procedure: In vivo toxicity assessment of algae-NP(DOX)-robot. Finally, the toxicity profile of the algae-NP(DOX)-robot was assessed. Healthy mice were subjected to intratracheal administration using one of three different treatments: algae-NP(DOX)-robot, free DOX, and NP(DOX). Each mouse received a total of four 75-μg DOX doses given every other day. A blood count and a comprehensive metabolic panel were performed one day after the final injection to assess the effects of these treatments.
In vivo safety evaluation. Healthy female C57BL/6 mice were intratracheally administered with free DOX, NP(DOX) and algae-NP(DOX)-robot every other day for a total of four injections. Mice without treatment were used as controls. At 24 h following the last treatment, blood samples were collected via submandibular puncture into Microvette 100 EDTA K3E tubes (Sarstedt) for blood cell quantification. To collect serum for comprehensive blood chemistry analysis, blood samples were obtained without any anticoagulant, placed at room temperature for 30 min, and centrifuged at 3000 g for 10 min. Both the blood cell quantification and blood chemistry analyses were performed by the Animal Care Program Diagnostic Services Laboratory at UCSD. For histological analysis, the heart, liver, spleen, lungs and kidneys were excised and fixed in phosphate-buffered 10% formalin (Fisher Chemical), followed by sectioning and hematoxylin and eosin staining. These histological procedures were conducted by the Moores Cancer Center Tissue Technology Shared Resource.

| SMILES | minimal bactericidal concentration (P. aeruginosa) | median survival time ([1]; four 75-μg DOX doses intratracheal) | body weight during treatment ([1]; mouse, in vivo) | liver and kidney biomarkers (ALB, ALP, ALT, BUN, TBIL, CRE) ([2]; four 75-μg DOX doses, one day after final dose) | histology of heart, liver, spleen, lungs and kidneys ([2]; mouse, in vivo) | other biomarkers (CA, GLU, PHOS, K+, Na+, TP) ([2]; mouse, in vivo) | white blood cells, red blood cells and platelets ([2]; mouse, in vivo) |
| --- | --- | --- | --- | --- | --- | --- | --- |
| O=C(O)c1cn(C2CC2)c2cc(N3CCNCC3)c(F)cc2c1=O [free Cip, ciprofloxacin] | 0.125 µg/mL (≈ 0.377 µM) |  |  |  |  |  |  |
| COc1cccc2c1C(=O)c1c(O)c3c(c(O)c1C2=O)C[C@@](O)(C(=O)CO)C[C@@H]3O[C@H]1C[C@H](N)[C@H](O)[C@H](C)O1 [free DOX, doxorubicin] |  | 27 days | pronounced decline in body weight | no abnormalities | no observable damage | within their normal ranges | elevated platelet levels |
